The term pEC50 denotes the negative decadic logarithm of the EC50, by convention in mol/L. Broadly, the Emax is the size of the effect at its maximum, as opposed to the concentration needed.

The target in the experiment is human cannabinoid CB2 receptor (Homo sapiens, UniProt P34972). Briefly: Cannabinoid CB2 receptor agonist activity (yeast reporter assay, FDGlu fluorescence). Conditions: for Emax: read-out: efficacy value (Emax relative to HU210) at the cloned human cannabinoid CB2 receptor. It is filed as cell-based. The procedure:
Determination of Cannabinoid CB2 Receptor Agonist Activity
The cannabinoid CB2 receptor agonist activity of the compounds of formula (I)-(IV) was determined in accordance with the following experimental method.
Yeast (Saccharomyces cerevisiae) cells expressing the human cannabinoid CB2 receptor were generated by integration of an expression cassette into the ura3 chromosomal locus of yeast strain MMY23. This cassette consisted of DNA sequence encoding the human CB2 receptor flanked by the yeast GPD promoter to the 5′ end of CB2 and a yeast transcriptional terminator sequence to the 3′ end of CB2. MMY23 expresses a yeast/mammalian chimeric G-protein alpha subunit in which the C-terminal 5 amino acids of Gpa1 are replaced with the C-terminal 5 amino acids of human Gαi3 (as described in Brown et al. (2000), Yeast 16:11-22). Cells were grown at 30° C. in liquid Synthetic Complete (SC) yeast media (Guthrie and Fink (1991), Methods in Enzymology, Vol. 194) lacking uracil, tryptophan, adenine and leucine to late logarithmic phase (approximately 6 OD600/ml).
Agonists were prepared as 10 mM stocks in DMSO. […] Agonist solutions in DMSO (1% final assay volume) were transferred into black, clear bottom, microtitre plates from NUNC (96- or 384-well). Cells were suspended at a density of 0.2 OD600/ml in SC media lacking histidine, uracil, tryptophan, adenine and leucine and supplemented with 10 mM 3-aminotriazole, 0.1M sodium phosphate pH 7.0, and […] fluorescein di-β-D-glucopyranoside (FDGlu). This mixture (50 ul per well for 384-well plates, 200 ul per well for 96-well plates) was added to agonist in the assay plates (Multidrop 384, Labsystems). After incubation at 30° C. for 24 hours, fluorescence resulting from degradation of FDGlu to fluorescein due to exoglucanase, an endogenous yeast enzyme produced during agonist-stimulated cell growth, was determined using a Spectrofluor microtitre plate reader (Tecan; excitation wavelength: 485 nm; emission wavelength: 535 nm). Fluorescence was plotted against compound concentration and iteratively curve fitted using a four parameter fit to generate a concentration effect value. Efficacy (Emax) was calculated from the equation
where Max[compound X] and Min[compound X] are the fitted maximum and minimum respectively from the concentration effect curve for compound X, and Max[HU210] and Min[HU210] are the fitted maximum and minimum respectively from the concentration effect curve for (6aR,10aR)-3-(1,1′-Dimethylheptyl)-6a,7,10,10a-tetrahydro-1-hydroxy-6,6-dimethyl-6H-dibenzo[b,d]pyran-9-methanol (HU210; available from Tocris). Equieffective molar ratio (EMR) values were calculated from the equation
Where EC50 [compound X] is the EC50 of compound X and EC50 [HU210] is the EC50 of HU210.
(In general: In a reporter assay the amount or activity of a reporter protein is the signal.)

Setting [1] is: EC50 value at the cloned human cannabinoid CB2 receptor.

Molecules are shown by their SMILES. pEC50: −log10 of the molar value. Like-named read-outs stand apart in the source and are kept apart here. Bounds are passed on as bounds.

Sequence of human cannabinoid CB2 receptor (P34972 whole entry): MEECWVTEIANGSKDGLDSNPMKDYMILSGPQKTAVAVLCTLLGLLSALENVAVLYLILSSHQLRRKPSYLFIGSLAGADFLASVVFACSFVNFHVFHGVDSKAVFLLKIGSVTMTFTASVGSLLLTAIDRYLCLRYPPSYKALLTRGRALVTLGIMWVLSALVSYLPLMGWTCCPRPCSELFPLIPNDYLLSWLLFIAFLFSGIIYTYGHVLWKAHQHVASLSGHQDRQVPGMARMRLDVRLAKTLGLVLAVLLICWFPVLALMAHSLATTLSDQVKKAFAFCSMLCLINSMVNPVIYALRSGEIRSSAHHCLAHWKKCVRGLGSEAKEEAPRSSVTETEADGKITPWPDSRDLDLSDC

Turning to `O=C(c1cnc(Nc2ccc(Cl)c(Cl)c2)nc1C(F)(F)F)N1CCOCC1` [Example 68, 1-[2-(3,4-Dichlorophenylamino)-4-trifluoromethylpyrimidin-5-yl]-1-(morpholin-4-yl)-methanone], the Emax was greater than 50%. Further, the pEC50 under setting [1] is 6.52 to 7.70. In the case of `O=C(NC[C@H]1CCCO1)c1cnc(Nc2cccc(F)c2)nc1C(F)(F)F` [Example 73, 2-(3-Fluoro-phenylamino)-4-trifluoromethyl-pyrimidine-5-carboxylic acid [(R)-1-(tetrahydro-furan-2-yl)methyl]-amide], the Emax was greater than 50%. In the case of `O=C(NC1CCCC1)c1cnc(Nc2ccc(Cl)c(Cl)c2)nc1C(F)(F)F` [Example 74, 3,4-Dichlorophenylamino-4-trifluoromethyl-pyrimidine-5-carboxylic acid cyclopentylamide], the Emax was greater than 50%. Also, the pEC50 under setting [1] is 6.00 to 6.52. As for `O=C(NC1CCCC1)c1cnc(Nc2cc(Cl)cc(Cl)c2)nc1C(F)(F)F` [Example 75, 3,5-Dichlorophenylamino-4-trifluoromethyl-pyrimidine-5-carboxylic acid cyclopentylamide], the Emax is greater than 50%. Also, under setting [1], the pEC50 was 6.00 to 6.52. The corresponding values for `COc1cccc(Nc2ncc(C(=O)NC3CCCC3)c(C(F)(F)F)n2)c1` [Example 76, 3-Methoxyphenylamino-4-trifluoromethyl-pyrimidine-5-carboxylic acid cyclopentylamide] are greater than 50% and 6.00 to 6.52. Taken in the same sequence, the figures for `O=C(NC1CCCC1)c1cnc(Nc2cccc(Cl)c2Cl)nc1C(F)(F)F` [Example 77, 2,3-Dichlorophenylamino-4-trifluoromethyl-pyrimidine-5-carboxylic acid cyclopentylamide] were greater than 50% and 6.00 to 6.52. Taken in the same sequence, the figures for `O=C(c1cnc(Nc2cccc(F)c2)nc1C(F)(F)F)N1CCCCC1` [Example 78, 1-[2-(3-fluorophenylamino)-4-trifluoromethyl-pyrimidin-5-yl]-1-piperidin-1-yl-methanone] were greater than 50% and 6.00 to 6.52.

Regarding `CS(=O)(=O)N1CCN(C(=O)c2cnc(Nc3cccc(Cl)c3)nc2C(F)(F)F)CC1` [Example 79, 1-[2-(3-chlorophenylamino)-4-trifluoromethyl-pyrimidin-5-yl]-1-(4-methanesulfonyl-piperazin-1-yl)-methanone], the Emax was greater than 50%. The pEC50 under setting [1] was 6.00 to 6.52. As for `O=C(NC[C@H]1CCCO1)c1cnc(Nc2cccc(Br)c2)nc1C(F)(F)F` [Example 80, 2-(3-bromophenylamino)-4-trifluoromethyl-pyrimidine-5-carboxylic acid [R-1-(tetrahydrofuran-2-yl)methyl]-amide], the Emax is greater than 50%. In addition, the pEC50 under setting [1] was 6.00 to 6.52.

As for `O=C(NC1CCS(=O)(=O)CC1)c1cnc(Nc2cccc(Cl)c2Cl)nc1C(F)(F)F` [Example 82, 2-(2,3-Dichlorophenylamino)-4-trifluoromethyl-pyrimidine-5-carboxylic acid (1,1-dioxo-tetrahydro-2H-thiopyran-4-yl)-amide], the Emax is greater than 50%. This compound also showed a pEC50 under setting [1] of 6.00 to 6.52. The corresponding values for `O=C(NCC1CC1)c1cnc(Nc2cccc(F)c2)nc1C(F)(F)F` [Example 83, 2-(3-Fluoro-phenylamino)-4-trifluoromethyl-pyrimidine-5-carboxylic acid cyclopropylmethyl-amide] are greater than 50% and 6.00 to 6.52. The corresponding values for `O=C(NCC1CC1)c1cnc(Nc2cccc(Cl)c2)nc1C(F)(F)F` [Example 84, 2-(3-Chloro-phenylamino)-4-trifluoromethyl-pyrimidine-5-carboxylic acid cyclopropylmethyl-amide] are greater than 50% and 6.00 to 6.52. Taken in the same sequence, the figures for `O=C(c1cnc(Nc2cc(Cl)ccc2Cl)nc1C(F)(F)F)N1CCCCC1` [Example 85, 1-[2-(2,5-Dichloro-phenylamino)-4-tri-fluoromethyl-pyrimidin-5-yl]-1-piperidin-1-yl-methanone] were greater than 50% and 6.00 to 6.52. Take `O=C(NCC1(O)CCOCC1)c1cnc(Nc2cccc(Br)c2)nc1C(F)(F)F` [Example 87, 2-(3-Bromophenyl-amino)-4-trifluoromethyl-pyrimidine-5-carboxylic acid (4-hydroxytetrahydropyran-4-ylmethyl)amide]: the Emax was greater than 50%. Under setting [1], this compound showed a pEC50 of 6.00 to 6.52.

For `O=C(NCC1CCCCC1)c1cnc(Nc2cc(C(F)(F)F)cc(C(F)(F)F)c2)nc1C(F)(F)F` [Example 88, 2-(3,5-Bis-trifluoromethyl-phenylamino)-4-trifluoromethyl-pyrimidine-5-carboxylic acid cyclohexylmethyl-amide], the Emax is greater than 50%. The compound further had a pEC50 under setting [1] of 6.00 to 6.52. The corresponding values for `N#Cc1cc(C#N)cc(Nc2ncc(C(=O)NCC3CCCCC3)c(C(F)(F)F)n2)c1` [Example 89, 2-(3,5-Dicyano-phenylamino)-4-trifluoromethyl-pyrimidine-5-carboxylic acid cyclohexylmethyl-amide] are greater than 50% and 6.00 to 6.52. Regarding `O=C(NCC1CCCCC1)c1cnc(Nc2cc(F)cc(C(F)(F)F)c2)nc1C(F)(F)F` [Example 90, 2-(3-Fluoro-5-trifluoromethyl-phenylamino)-4-trifluoromethyl-pyrimidine-5-carboxylic acid cyclohexylmethyl-amide], the Emax was greater than 50%. The pEC50 under setting [1] was 6.00 to 6.52. Taken in the same sequence, the figures for `O=C(NCC1CCCCC1)c1cnc(Nc2cc(Br)cc(C(F)(F)F)c2)nc1C(F)(F)F` [Example 91, 2-(3-Bromo-5-trifluoromethyl-phenylamino)-4-trifluoromethyl-pyrimidine-5-carboxylic acid cyclohexylmethyl-amide] were greater than 50% and 6.00 to 6.52.

For the compound `Cc1cccc(Nc2ncc(C(=O)NCC3CCCCC3)c(C(F)(F)F)n2)c1Cl` [Example 92, 2-(2-Chloro-3-methyl-phenylamino)-4-trifluoromethyl-pyrimidine-5-carboxylic acid cyclohexylmethyl-amide], the Emax was greater than 50%. Besides, under setting [1], the pEC50 is 6.00 to 6.52. Taken in the same sequence, the figures for `Cc1c(Cl)cccc1Nc1ncc(C(=O)NCC2CCCCC2)c(C(F)(F)F)n1` [Example 93, 2-(3-Chloro-2-methyl-phenylamino)-4-trifluoromethyl-pyrimidine-5-carboxylic acid cyclohexylmethyl-amide] were greater than 50% and 6.00 to 6.52. Taken in the same sequence, the figures for `Cc1cc(Cl)ccc1Nc1ncc(C(=O)NCC2CCCCC2)c(C(F)(F)F)n1` [Example 94, 2-(4-Chloro-2-methyl-phenylamino)-4-trifluoromethyl-pyrimidine-5-carboxylic acid cyclohexylmethyl-amide] were greater than 50% and 6.00 to 6.52. For the compound `Cc1cc(Cl)cc(C)c1Nc1ncc(C(=O)NCC2CCCCC2)c(C(F)(F)F)n1` [Example 95, 2-(4-Chloro-2,6-dimethyl-phenylamino)-4-trifluoromethyl-pyrimidine-5-carboxylic acid cyclohexylmethyl-amide], the Emax is greater than 50%. Moreover, the pEC50 under setting [1] is 6.00 to 6.52. The corresponding values for `O=C(NCC1CCCC1)c1cnc(Nc2cc(F)cc(F)c2)nc1C(F)(F)F` [Example 96, 2-(3,5-Difluoro-phenylamino)-4-trifluoromethyl-pyrimidine-5-carboxylic acid cyclopentylmethyl-amide] are greater than 50% and 6.00 to 6.52. In the case of `O=C(NCC1CCCC1)c1cnc(Nc2ccc(C(F)(F)F)c(F)c2)nc1C(F)(F)F` [Example 97, 2-(4-Trifluoromethyl-3-fluorophenylamino)-4-trifluoromethyl-pyrimidine-5-carboxylic acid cyclopentylmethyl-amide], the pEC50 (read-out: EC50 value at the cloned human cannabinoid CB2 receptor) was 6.00 to 6.52. As to `O=C(NCC1CCOCC1)c1cnc(Nc2ccc(F)cc2F)nc1C(F)(F)F` [Example 98, 2-(2,4-Difluorophenylamino)-4-trifluoromethyl-pyrimidine-5-carboxylic acid (tetrahydro-pyran-4-ylmethyl)-amide], the Emax is greater than 50%. Moreover, the pEC50 under setting [1] is 6.00 to 6.52.

The values above are taken from patent publication US20080132505A1 (Glaxo Group Limited, priority 2004, published 2008).
